In ChEMBL document CHEMBL1142322, “Synthesis and biological evaluation of novel 8-aminomethylated oroxylin A analogues as alpha-glucosidase inhibitors” (Bioorg Med Chem Lett, 2008):
Active and inactive are the calls of the source. The rule behind the calls is not given here.

Key:
[1] = (§1) Inhibition of rat intestinal alpha-glucosidase
[2] = (§2) Inhibition of yeast alpha-glucosidase; design: species or system Saccharomyces cerevisiae
[3] = species: Rattus norvegicus; assay: as §1
[4] = test system: Saccharomyces cerevisiae; assay: as §2
[5] = biological target: Sucrase-isomaltase, intestinal (Homo sapiens, UniProt P14410); assay: Inhibition of sucrase
Sequence of Sucrase-isomaltase, intestinal (P14410 2-1007 limits assumed): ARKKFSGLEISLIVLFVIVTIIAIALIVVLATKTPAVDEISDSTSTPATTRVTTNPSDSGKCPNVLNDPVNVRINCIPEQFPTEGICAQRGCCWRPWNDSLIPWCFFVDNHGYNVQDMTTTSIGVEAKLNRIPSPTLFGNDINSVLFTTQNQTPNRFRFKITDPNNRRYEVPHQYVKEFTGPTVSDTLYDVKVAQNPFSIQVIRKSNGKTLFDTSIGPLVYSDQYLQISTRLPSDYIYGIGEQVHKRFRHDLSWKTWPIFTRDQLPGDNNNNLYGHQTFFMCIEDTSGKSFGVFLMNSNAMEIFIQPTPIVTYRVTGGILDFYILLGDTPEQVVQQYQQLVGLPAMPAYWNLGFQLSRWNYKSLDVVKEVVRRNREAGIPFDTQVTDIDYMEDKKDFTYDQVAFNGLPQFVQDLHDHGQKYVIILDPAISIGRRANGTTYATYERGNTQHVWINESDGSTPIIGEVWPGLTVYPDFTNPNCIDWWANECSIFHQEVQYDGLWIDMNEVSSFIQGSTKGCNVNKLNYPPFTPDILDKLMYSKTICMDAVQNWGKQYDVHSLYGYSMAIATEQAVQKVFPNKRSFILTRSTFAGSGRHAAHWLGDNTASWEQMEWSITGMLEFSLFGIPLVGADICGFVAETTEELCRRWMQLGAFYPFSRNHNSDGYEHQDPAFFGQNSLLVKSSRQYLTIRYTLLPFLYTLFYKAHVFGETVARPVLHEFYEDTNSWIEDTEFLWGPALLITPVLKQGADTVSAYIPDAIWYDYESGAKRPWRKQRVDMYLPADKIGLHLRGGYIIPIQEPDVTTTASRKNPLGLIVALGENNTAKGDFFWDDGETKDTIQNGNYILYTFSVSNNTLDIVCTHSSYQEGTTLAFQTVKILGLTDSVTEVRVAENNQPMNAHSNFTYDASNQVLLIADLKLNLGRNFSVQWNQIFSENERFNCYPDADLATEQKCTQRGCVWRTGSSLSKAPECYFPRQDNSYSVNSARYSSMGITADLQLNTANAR
Sequence of Sucrase-isomaltase, intestinal (P14410 1008-1827 limits assumed): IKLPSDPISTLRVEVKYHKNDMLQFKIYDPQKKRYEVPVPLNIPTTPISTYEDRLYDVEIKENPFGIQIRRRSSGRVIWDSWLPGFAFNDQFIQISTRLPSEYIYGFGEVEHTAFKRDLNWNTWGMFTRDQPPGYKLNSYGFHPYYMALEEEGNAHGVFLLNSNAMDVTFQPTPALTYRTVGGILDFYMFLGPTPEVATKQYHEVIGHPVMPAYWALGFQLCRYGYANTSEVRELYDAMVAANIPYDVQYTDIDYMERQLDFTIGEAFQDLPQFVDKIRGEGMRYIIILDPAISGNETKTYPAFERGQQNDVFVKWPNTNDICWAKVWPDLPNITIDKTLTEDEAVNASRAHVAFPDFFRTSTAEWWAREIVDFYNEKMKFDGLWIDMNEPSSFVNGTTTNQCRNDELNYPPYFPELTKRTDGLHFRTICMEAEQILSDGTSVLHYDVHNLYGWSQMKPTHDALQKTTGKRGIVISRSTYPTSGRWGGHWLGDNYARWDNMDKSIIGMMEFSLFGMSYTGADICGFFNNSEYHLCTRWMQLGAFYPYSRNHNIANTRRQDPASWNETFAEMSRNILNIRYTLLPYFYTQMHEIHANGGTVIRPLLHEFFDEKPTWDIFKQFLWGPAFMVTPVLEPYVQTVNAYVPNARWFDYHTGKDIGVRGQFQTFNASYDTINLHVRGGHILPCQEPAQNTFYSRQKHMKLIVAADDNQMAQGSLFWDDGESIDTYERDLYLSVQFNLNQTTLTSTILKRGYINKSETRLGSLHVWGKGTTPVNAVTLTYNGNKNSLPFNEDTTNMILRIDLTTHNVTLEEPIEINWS

SMILES | IC50 [1] | IC50 [2] | Activity [3] | Activity [4] | IC50 [5]
COc1c(O)c(CN2CCN(C(=O)OC(C)(C)C)CC2)c2oc(-c3ccccc3)cc(=O)c2c1O | 75 µM | 84.4 µM | – | – | –
COc1c(O)c(CN(C)Cc2ccccc2)c2oc(-c3ccccc3)cc(=O)c2c1O | – | – | inactive | inactive | –
COc1c(O)c(CN2CCN(C)CC2)c2oc(-c3ccccc3)cc(=O)c2c1O | 35.4 µM | 98.8 µM | – | – | –
COc1c(O)c(CN2CCCC2)c2oc(-c3ccccc3)cc(=O)c2c1O | – | – | inactive | inactive | –
COc1c(O)c(CN(C)Cc2ccco2)c2oc(-c3ccccc3)cc(=O)c2c1O | – | – | inactive | inactive | –
COc1c(O)c(CN(c2ccccc2)c2ccccc2)c2oc(-c3ccccc3)cc(=O)c2c1O | – | – | inactive | inactive | –
O=c1cc(-c2ccccc2)oc2cc(O)c(O)c(O)c12 [BAICALEIN] | 215 µM | 203 µM | – | – | 52 µM
C[C@H]1O[C@H](O[C@H]2[C@H](O)[C@@H](O)[C@@H](O[C@H]3[C@H](O)[C@@H](O)C(O)O[C@@H]3CO)O[C@@H]2CO)[C@H](O)[C@@H](O)[C@@H]1N[C@H]1C=C(CO)[C@@H](O)[C@H](O)[C@H]1O (some centres undefined) [ACARBOSE] | 6.38 µM | – | – | – | –
COc1c(O)c(CNCc2ccccc2)c2oc(-c3ccccc3)cc(=O)c2c1O | – | – | inactive | inactive | –
O=c1cc(-c2ccccc2)oc2cc(O)cc(O)c12 [CHRYSIN] | 376 µM | 371 µM | – | – | –
COc1c(O)cc2oc(-c3ccccc3)cc(=O)c2c1O [OROXYLIN A] | 135 µM | 124 µM | – | – | –
COc1c(O)c(CN2CCCCC2)c2oc(-c3ccccc3)cc(=O)c2c1O | 50.7 µM | 167 µM | – | – | –
OC[C@H]1NC[C@H](O)[C@@H](O)[C@@H]1O [DUVOGLUSTAT] | – | 49.3 µM | – | – | –
CCCCNCc1c(O)c(OC)c(O)c2c(=O)cc(-c3ccccc3)oc12 | – | – | inactive | inactive | –
COc1c(O)c(CN2CCOCC2)c2oc(-c3ccccc3)cc(=O)c2c1O | 76 µM | 150 µM | – | – | –
